Data on two molecules can be found in publication PMC9229949 (Pharmaceutics, 2022).

Where two headings read alike, the source gives them in different places. Some results are limits rather than exact numbers.

The term inhibition denotes the share of the control response that was lost under treatment. For orientation: IC50 means the concentration needed to halve the response being measured.

The test system of assay [1] is P. berghei sporozoites in Huh-7 cells. As to the kind of experiment: P. berghei hepatic stages: infection of Huh-7 cells by luciferase-expressing sporozoites. Type of assay: cell-based. On the procedure: Huh-7 cells at 1.0 × 10^4 per well were seeded in 96-well plates the day before drug treatment and infection. The culture medium was replaced by infection medium (culture medium supplemented with gentamicin (50 μg/mL) and amphotericin B (0.8 μg/mL)) containing the appropriate concentration of each compound for approximately 1 h prior to infection with sporozoites of firefly luciferase-expressing P. berghei, freshly obtained through the disruption of salivary glands of infected female Anopheles stephensi mosquitoes. An amount of the DMSO solvent equivalent to that present in the highest compound concentration was used as negative control. Sporozoite addition was followed by centrifugation at 1800× g for 5 min. and parasite infection load was measured 48 h after infection by using a bioluminescence assay (Biotium, Hayward, CA, USA). The effect of the compounds on the viability of Huh-7 cells was assessed by performing the AlamarBlue (Invitrogen, Waltham, MA, USA) assay according to the manufacturer’s protocol.

Assay [2] concerns 3D7 P. falciparum gametocytes stage V. In words: P. falciparum mature gametocytes (stage V), luciferase viability. Type of assay: cell-based. To be noted: 3D7 strain, 72 h, mean ± S.D. of one experiment, read-out: IC50, gametocytes of P. falciparum, Stage V. As for the experimental part: The activity of compounds was assessed against young gametocytes (stages I/III) and against mature gametocytes (stage V). […] A volume of 100 μL of 3D7elo1-pfs16-CBG99 gametocytes of 3D7 P. falciparum at 0.5–1% parasitemia and 2% hematocrit were dispensed. […] Luciferase activity was used to determine gametocytes viability. A volume of 100 µL of culture medium was removed from each well to increase hematocrit; 70 µL of resuspended culture was transferred to a black 96-well plate; 70 µL of D-luciferin (1 mM in citrate buffer 0.1 M, pH 5.5) was added. Luminescence measurements were performed after 10 min with 500 ms integration time. The IC50 was extrapolated from nonlinear regression analysis of the concentration–response curve.

Assay [3] deals with T1, S. mansoni thioredoxin-glutathione reductase (SmTGR) (Schistosoma mansoni, UniProt Q962Y6).
T1 construct: made in house
T1 sequence (Q962Y6 1-598): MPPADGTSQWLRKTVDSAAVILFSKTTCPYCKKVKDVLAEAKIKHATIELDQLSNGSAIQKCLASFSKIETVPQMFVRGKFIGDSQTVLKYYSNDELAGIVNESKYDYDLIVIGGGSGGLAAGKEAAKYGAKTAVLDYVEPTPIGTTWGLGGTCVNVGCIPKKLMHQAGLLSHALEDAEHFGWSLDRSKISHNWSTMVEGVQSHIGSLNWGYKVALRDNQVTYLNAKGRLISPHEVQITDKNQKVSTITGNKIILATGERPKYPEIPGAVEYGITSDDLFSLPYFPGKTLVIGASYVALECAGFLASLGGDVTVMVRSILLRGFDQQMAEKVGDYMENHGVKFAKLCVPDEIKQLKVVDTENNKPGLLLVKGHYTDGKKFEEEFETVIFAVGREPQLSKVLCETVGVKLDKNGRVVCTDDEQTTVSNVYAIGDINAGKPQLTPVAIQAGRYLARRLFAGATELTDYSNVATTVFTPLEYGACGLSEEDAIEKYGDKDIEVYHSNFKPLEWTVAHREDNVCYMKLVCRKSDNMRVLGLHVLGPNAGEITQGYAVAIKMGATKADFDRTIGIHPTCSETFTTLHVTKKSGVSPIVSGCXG
As to the kind of experiment: Inhibition of enzymatic activity of recombinant S. mansoni thioredoxin glutathione reductase. It counts as biochemical. The note with it: 15 min preincubation, mean of one experiment, read-out: IC50 for TrxRs, S. mansoni (Sec). As for the experimental part: (§1) The codon-optimized sequence for PfTrxR [27, 28] was synthesized and subcloned into pET-15b (Genscript) and expressed and purified as for human glutathione reductase (hGR). Recombinant Schistosoma mansoni (S. mansoni) thioredoxin glutathione reductase (SmTGR), human TrxR (hTrxR), and hGR proteins were expressed and purified as described. TrxR and TGR enzyme inhibition assays were performed in triplicate at 25 °C in 0.1 M potassium phosphate (pH 7.4), 10 mM EDTA, 100 µM NADPH and 0.01% Tween-20. SmTGR (4 nM), hTrxR (4 nM), and PfTrxR (50 nM) were preincubated with the compounds for 15 min. The reaction was started with addition of an equal volume of 5,5′-dithiobis(2-nitrobenzoic acid) (6 mM) and NADPH (100 µM). The increase in A412 during the first 3 min was recorded. […]. The reactions were performed in triplicate. The IC50s were calculated in Prism version 5.01.

For assay [4], the target named is T2, PfTrxR (Plasmodium falciparum, UniProt Q25861).
T2 construct: made in house
T2 sequence (Q25861 1-541): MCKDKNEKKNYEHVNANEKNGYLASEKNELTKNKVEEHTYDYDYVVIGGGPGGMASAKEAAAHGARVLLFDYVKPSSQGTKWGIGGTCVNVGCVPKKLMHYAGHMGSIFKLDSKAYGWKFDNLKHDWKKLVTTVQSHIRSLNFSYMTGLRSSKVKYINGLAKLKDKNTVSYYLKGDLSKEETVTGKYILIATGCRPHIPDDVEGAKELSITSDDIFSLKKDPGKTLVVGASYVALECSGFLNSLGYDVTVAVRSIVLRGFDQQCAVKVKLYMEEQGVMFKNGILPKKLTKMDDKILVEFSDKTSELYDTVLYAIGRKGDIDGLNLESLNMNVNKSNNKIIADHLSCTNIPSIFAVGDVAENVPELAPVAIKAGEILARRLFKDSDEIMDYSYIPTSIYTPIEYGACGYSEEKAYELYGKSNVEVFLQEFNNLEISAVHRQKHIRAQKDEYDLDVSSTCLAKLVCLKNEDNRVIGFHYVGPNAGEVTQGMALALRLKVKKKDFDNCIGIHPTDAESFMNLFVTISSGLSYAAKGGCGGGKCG
As to the kind of experiment: Inhibition of enzymatic activity of recombinant P. falciparum TrxR. It counts as biochemical. As for the experimental part:
as §1

Assay [5] addresses T3, human glutathione reductase (hGR) (Homo sapiens, UniProt P00390).
T3 construct: made in house
T3 sequence (P00390 44-522): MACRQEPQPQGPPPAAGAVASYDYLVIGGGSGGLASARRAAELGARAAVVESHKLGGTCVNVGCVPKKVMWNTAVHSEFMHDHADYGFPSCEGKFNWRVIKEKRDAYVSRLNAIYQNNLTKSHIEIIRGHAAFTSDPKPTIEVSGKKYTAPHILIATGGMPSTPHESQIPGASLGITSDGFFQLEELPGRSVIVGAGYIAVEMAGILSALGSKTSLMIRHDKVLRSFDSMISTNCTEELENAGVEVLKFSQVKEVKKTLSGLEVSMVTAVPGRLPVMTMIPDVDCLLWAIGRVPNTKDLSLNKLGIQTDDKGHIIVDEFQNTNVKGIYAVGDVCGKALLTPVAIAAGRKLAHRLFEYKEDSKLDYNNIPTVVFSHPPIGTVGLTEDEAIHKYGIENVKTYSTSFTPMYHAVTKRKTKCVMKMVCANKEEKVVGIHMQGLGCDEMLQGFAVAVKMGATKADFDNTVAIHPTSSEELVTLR
In words: Inhibition of enzymatic activity of recombinant human glutathione reductase. It counts as biochemical. The note with it: recombinant enzyme, 15 min preincubation; mean of one experiment; read-out: IC50, Human GR. On the procedure: as §1

On to `CCN(CC)Cc1cc(Nc2ccnc3cc(Cl)ccc23)ccc1O` [Amodiaquine (AQ), amodiaquine], for which the inhibition at 10 µM in assay [1] (Plasmodium berghei, Huh-7, 48 h, read-out: Sporozoites (Inhibition of Infection, %)) was determined as 71%. Also, the IC50 in assay [2] (Plasmodium falciparum) is 23.6 ± 5 µM; in assay [3], 42 µM; in assay [4] it was over 66.7 µM; in assay [5], over 66.7 µM.
For `[Cl][Au].c1ccc(P(c2ccccc2)c2ccccc2)cc1` [[AuClPPh3]], in assay [1] (up to 10 μM), the “inhibitory activity for the hepatic stages” value is “no inhibitory activity”. Besides, the IC50 in assay [2] is 15.2 ± 2.6 µM; in assay [3], 0.0005 µM; in assay [4] (recombinant enzyme, 15 min preincubation, mean of one experiment, read-out: IC50 for TrxRs, P. falciparum (Cys)), 0.0019 µM; in assay [5] it was 0.00118 µM.
